Data set [1] concerns breast cancer cell line MX-1. In words: MX-1 cell line proliferation assay. In kind it is cell-based, human. The note with it: Homo sapiens, MX1, 72 h; MX-1 cells, 3-day proliferation, Cell Titer Glo; read-out: Cellular proliferation: EC50. A general note: In ATP-based viability assays light output follows the ATP content of the culture.
Data set [2] deals with human BRD4 second bromodomain (BDII_E352-M457) (Homo sapiens (Human), UniProt O60885). In words: TR-FRET bromodomain binding assay, BRD4 second bromodomain. (In general: TR-FRET usually uses a lanthanide donor and a delayed reading to cut background.)
Data set [3] in a line: Human liver microsome stability assay. In kind it is in vitro ADME. The note with it: both sexes, human, microsomes, pH 7.4. For orientation: Microsomes from liver hold many membrane-bound enzymes, among them those of drug oxidation.
A short description of data set [4]: Rat liver microsome stability assay. The note with it: rat liver microsomes (male Sprague-Dawley), 0.5 μM test compound, pH 7.4, 37° C.; for half-life at 0.5 μM: 0.25 mg/mL microsomal protein, read-out: Stability in rat liver microsomes (t1/2 in minutes); for Stability in rat liver microsomes (t1/2 in minutes): […] microsomal protein. In kind it is in vitro ADME.

Data set [5] is described as follows: Mouse liver microsome stability assay. The note with it: male, CD1, mouse, microsomes, pH 7.4. The data set is classed as in vitro ADME.
Data set [6] deals with human BRD4 first bromodomain (BDI_K57-E168) (Homo sapiens (Human), UniProt O60885). In words: TR-FRET bromodomain binding assay, BRD4 first bromodomain.

What is called Ki is a dissociation constant, usually derived from enzyme kinetics or from competition with a known ligand. Take `CCS(=O)(=O)c1ccc(OC2CCN(C(C)=O)CC2)c(-c2cn(C)c(=O)c3[nH]ccc23)c1` [Example 303, 4-{2-[(1-acetylpiperidin-4-yl)oxy]-5-(ethylsulfonyl)phenyl}-6-methyl-1,6-dihydro-7H-pyrrolo[2,3-c]pyridin-7-one]: the EC50 in data set [1] is 335 nM. In addition, the Ki in data set [2] came to 7.1 nM; in data set [6] it was 3.9 nM. In addition, the values for the half-life at 0.5 μM in data set [3], in data set [4] and in data set [5] were 42 min, 69 min and over 120 min, respectively.
Turning to `Cn1cc(-c2cc(S(C)(=O)=O)ccc2Oc2cccc(C(F)(F)F)c2)c2cc[nH]c2c1=O` [Example 157, 6-methyl-4-{5-(methylsulfonyl)-2-[3-(trifluoromethyl)phenoxy]phenyl}-1,6-dihydro-7H-pyrrolo[2,3-c]pyridin-7-one], in data set [1], the EC50 came out at 150 nM. Also, the Ki in data set [2] was determined as 21.8 nM; in data set [6], 30.8 nM. In addition, the half-life at 0.5 μM came out at 27 min in data set [3], 53 min in data set [4] and 12 min in data set [5].
As to `Cn1cc(-c2cc(C3=CCN(C(=O)OC(C)(C)C)CC3)ccc2OCC2CC2)c2cc[nH]c2c1=O` [Example 325, tert-butyl 4-[4-(cyclopropylmethoxy)-3-(6-methyl-7-oxo-6,7-dihydro-1H-pyrrolo[2,3-c]pyridin-4-yl)phenyl]-3,6-dihydropyridine-1(2H)-carboxylate], in data set [1], the EC50 was 703 nM. Also, the figures for the Ki in data set [2] and in data set [6] were 199 nM and 155 nM, respectively. The half-life at 0.5 μM is 21 min in data set [3], 10 min in data set [4] and 8 min in data set [5].
Turning to `Cn1cc(-c2cc(S(C)(=O)=O)ccc2OC2CCCCC2)c2cc[nH]c2c1=O` [Example 215, 4-[2-(cyclohexyloxy)-5-(methylsulfonyl)phenyl]-6-methyl-1,6-dihydro-7H-pyrrolo[2,3-c]pyridin-7-one], the EC50 in data set [1] was 1.9 nM. The figures for the Ki in data set [2] and in data set [6] were 0.46 nM and 0.83 nM, respectively. For the same compound, the half-life at 0.5 μM in data set [3] was 12 min; in data set [4], 6 min; in data set [5], 11 min.
For `Cn1cc(-c2cc(NS(C)(=O)=O)ccc2Oc2ccccc2)c2cc(C(=O)O)[nH]c2c1=O` [Example 70, 6-methyl-4-{5-[(methylsulfonyl)amino]-2-phenoxyphenyl}-7-oxo-6,7-dihydro-1H-pyrrolo[2,3-c]pyridine-2-carboxylic acid], the EC50 in data set [1] is over 3000 nM. The results for the Ki in data set [2] and in data set [6] were 46.8 nM and 11.8 nM, respectively. The results for the half-life at 0.5 μM in data set [3], in data set [4] and in data set [5] were 41 min, 9 min and 68 min, respectively.
As for `Cn1cc(-c2cc(S(=O)(=O)N3CCCC3)ccc2OCC2CC2)c2cc[nH]c2c1=O` [Example 302, 4-[2-(cyclopropylmethoxy)-5-(pyrrolidin-1-ylsulfonyl)phenyl]-6-methyl-1,6-dihydro-7H-pyrrolo[2,3-c]pyridin-7-one], the EC50 in data set [1] was found to be 16.9 nM. The Ki amounted to 3.5 nM in data set [2] and 5.8 nM in data set [6]. Besides, the half-life at 0.5 μM in data set [3] was found to be 5 min; in data set [4], 4 min; in data set [5], 3 min.
In the case of `Cn1cc(-c2cc(C(=O)NC3CCOC3)ccc2Oc2ccc(F)cc2F)c2cc[nH]c2c1=O` (stereo not drawn) [Example 51, 4-(2,4-difluorophenoxy)-3-(6-methyl-7-oxo-6,7-dihydro-1H-pyrrolo[2,3-c]pyridin-4-yl)-N-(tetrahydrofuran-3-yl)benzamide], the EC50 in data set [1] amounted to 101 nM. Also, the inhibition constant (Ki) came to 16.1 nM in data set [2] and 9.7 nM in data set [6]. In addition, the results for the half-life at 0.5 μM in data set [3], in data set [4] and in data set [5] were 6 min, 63 min and over 120 min, respectively.
`Cn1cc(-c2cc(S(C)(=O)=O)ccc2Nc2ccc(F)cc2)c2cc[nH]c2c1=O` [Example 332, 4-{2-[(4-fluorophenyl)amino]-5-(methylsulfonyl)phenyl}-6-methyl-1,6-dihydro-7H-pyrrolo[2,3-c]pyridin-7-one]: the EC50 in data set [1] is 53.1 nM. Also, the values for the Ki in data set [2] and in data set [6] were 30.6 nM and 30.4 nM, respectively. For the same compound, the half-life at 0.5 μM is 65 min in data set [3], 70 min in data set [4] and over 120 min in data set [5].
For `Cn1cc(-c2cc(NS(C)(=O)=O)ccc2OC2CCCC2)c2cc[nH]c2c1=O` [Example 58, N-[4-(cyclopentyloxy)-3-(6-methyl-7-oxo-6,7-dihydro-1H-pyrrolo[2,3-c]pyridin-4-yl)phenyl]methanesulfonamide], the EC50 in data set [1] worked out at 45.1 nM. Also, the Ki is 8.1 nM in data set [2] and 2.1 nM in data set [6]. For the same compound, the values for the half-life at 0.5 μM in data set [3] and in data set [5] were over 120 min and 4 min, respectively. For the same compound, in data set [4], the “Stability in rat liver microsomes (t1/2 in minutes)” value was 1 min.
Turning to `Cn1cc(-c2cc(-c3ccc(F)nc3)ccc2OCC2CC2)c2cc[nH]c2c1=O` [Example 348, 4-[2-(cyclopropylmethoxy)-5-(6-fluoropyridin-3-yl)phenyl]-6-methyl-1,6-dihydro-7H-pyrrolo[2,3-c]pyridin-7-one], in data set [1], the EC50 is 1000 nM. The values for the inhibition constant (Ki) in data set [2] and in data set [6] were 422 nM and 157 nM, respectively. Also, the half-life at 0.5 μM in data set [3] is over 120 min; in data set [4], 2 min; in data set [5] it was 25 min.
As to `Cn1cc(-c2cc(CS(=O)(=O)c3ccccc3)ccc2Oc2ccc(F)cc2F)c2cc[nH]c2c1=O` [Example 306, 4-{2-(2,4-difluorophenoxy)-5-[(phenylsulfonyl)methyl]phenyl}-6-methyl-1,6-dihydro-7H-pyrrolo[2,3-c]pyridin-7-one], the EC50 in data set [1] turned out to be 51.6 nM. Further, the Ki is 63.9 nM in data set [2] and 82.2 nM in data set [6]. For the same compound, the half-life at 0.5 μM was determined as 11 min in data set [3], 9 min in data set [4] and 3 min in data set [5].
For `CCNC(=O)c1cc2c(-c3cc(NS(C)(=O)=O)ccc3Oc3ccccc3)cn(C)c(=O)c2[nH]1` [Example 72, N-ethyl-6-methyl-4-{5-[(methylsulfonyl)amino]-2-phenoxyphenyl}-7-oxo-6,7-dihydro-1H-pyrrolo[2,3-c]pyridine-2-carboxamide], in data set [1], the EC50 stood at 45.7 nM. Besides, the Ki in data set [2] was 1.1 nM; in data set [6] it was 1.5 nM. Moreover, the half-life at 0.5 μM was 34 min in data set [3] and 70 min in data set [5]. Also, the “Stability in rat liver microsomes (t1/2 in minutes)” value in data set [4] came out at 1 min.
Regarding `Cn1cc(-c2cc(S(N)(=O)=O)ccc2Oc2ccccc2)c2cc[nH]c2c1=O` [Example 95, 3-(6-methyl-7-oxo-6,7-dihydro-1H-pyrrolo[2,3-c]pyridin-4-yl)-4-phenoxybenzenesulfonamide], the EC50 in data set [1] is 56 nM. Besides, the Ki in data set [2] turned out to be 1.1 nM; in data set [6] it was 8.7 nM. Also, the half-life at 0.5 μM in data set [3] was over 120 min; in data set [4] it was 7 min; in data set [5] it was 36 min.
As to `CCS(=O)(=O)Nc1ccc(OC2CCC(F)(F)CC2)c(-c2cn(C)c(=O)c3[nH]ccc23)c1` [Example 101, N-{4-[(4,4-difluorocyclohexyl)oxy]-3-(6-methyl-7-oxo-6,7-dihydro-1H-pyrrolo[2,3-c]pyridin-4-yl)phenyl}ethanesulfonamide], the EC50 in data set [1] came to 11.2 nM. In addition, the Ki turned out to be 4.3 nM in data set [2] and 1.2 nM in data set [6]. Also, the half-life at 0.5 μM in data set [3] came out at 92 min; in data set [4] it was 12 min; in data set [5], 20 min.
Turning to `Cn1cc(-c2cc(C(=O)N3CCN(C(=O)c4ccco4)CC3)ccc2Oc2ccc(F)cc2F)c2cc[nH]c2c1=O` [Example 134, 4-[2-(2,4-difluorophenoxy)-5-{[4-(furan-2-ylcarbonyl)piperazin-1-yl]carbonyl}phenyl]-6-methyl-1,6-dihydro-7H-pyrrolo[2,3-c]pyridin-7-one], in data set [1], the EC50 amounted to 137 nM. Further, the Ki in data set [2] amounted to 7.3 nM; in data set [6], 43.5 nM. Also, the half-life at 0.5 μM stood at 15 min in data set [3], 21 min in data set [4] and 2 min in data set [5].
Turning to `CNS(=O)(=O)Nc1ccc(Oc2c(F)cc(F)cc2F)c(-c2cn(C)c(=O)c3[nH]ccc23)c1` [Example 98, N-methyl-N′-[3-(6-methyl-7-oxo-6,7-dihydro-1H-pyrrolo[2,3-c]pyridin-4-yl)-4-(2,4,6-trifluorophenoxy)phenyl]sulfuric diamide], the EC50 in data set [1] was 52.9 nM. The inhibition constant Ki in data set [2] was 2.7 nM; in data set [6], 6.5 nM. Also, the half-life at 0.5 μM in data set [3] stood at 26 min; in data set [4], 33 min; in data set [5], 10 min.
Regarding `CCS(=O)(=O)Nc1ccc(OCC2CC2)c(-c2cn(C)c(=O)c3[nH]ccc23)c1` [Example 145, N-[4-(cyclopropylmethoxy)-3-(6-methyl-7-oxo-6,7-dihydro-1H-pyrrolo[2,3-c]pyridin-4-yl)phenyl]ethanesulfonamide], the EC50 in data set [1] amounted to 26.4 nM. Further, the Ki amounted to 5.6 nM in data set [2] and 2.7 nM in data set [6]. The half-life at 0.5 μM in data set [3] was over 120 min; in data set [4] it was 12 min; in data set [5] it was 16 min.
As for `Cn1cc(-c2cc(S(C)(=O)=O)ccc2Oc2cccc(Cl)c2)c2cc[nH]c2c1=O` [Example 153, 4-[2-(3-chlorophenoxy)-5-(methylsulfonyl)phenyl]-6-methyl-1,6-dihydro-7H-pyrrolo[2,3-c]pyridin-7-one], in data set [1], the EC50 came to 93.3 nM. The figures for the Ki in data set [2] and in data set [6] were 8.2 nM and 22.8 nM, respectively. Also, the figures for the half-life at 0.5 μM in data set [3], in data set [4] and in data set [5] were 33 min, 8 min and 11 min, respectively.

Values taken from patent US9296741B2, “Bromodomain inhibitors” (priority 2012, dated 2016).
